In patent US11000033B2, “Ketone or oxime compound, and herbicide” (NISSAN CHEMICAL CORPORATION, priority 2014, dated 2021):

Columns and labels:
Assay type in all cases: in vivo
Veronica persica = experiment: Test Example 4: herbicidal effect by soil treatment (symbol R)
Method in brief: (§1)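 Seeds were sown in sterilized diluvial soil, covered with about 1.5 cm of soil, and the soil surface was sprayed with a water-diluted emulsion of the compound at a predetermined rate. Plants grew in a greenhouse at 25° C. to 30° C.; effects were scored visually 3 weeks after application.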

[1] = test system: Echinochloa crus-galli var. crus-galli; experiment: Test Example 3: herbicidal effect by foliage application, Wagner pot (symbol H); details: application herbicide amount 320 g/ha
Method in brief: (§2)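 Post-emergence, paddy-type test: seedlings 14 d old in shallow-flooded (0.1–0.5 cm) alluvial soil, 25–30 °C greenhouse. Emulsion diluted to target rate, sprayed on leaves. Read-out: visual effect on each species at 3 weeks, per set criteria.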

Digitaria ciliaris [2] = experiment: Test Example 5: herbicidal effect by foliage application, plastic box (symbol F); details: 320 g/ha, 3 weeks after application
Method in brief: (§3)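 Sowing in sterilized diluvial soil, 14 days' greenhouse growth at 25° C. to 30° C., then uniform small-sprayer foliar application of aqueous emulsion dilution; plants scored three weeks afterwards.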

Galium spurium = experiment: Test Example 5: herbicidal effect by foliage application, plastic box (symbol Q); details: 320 g/ha, 3 weeks after application
Method in brief: as §3

[3] = test system: Echinochloa oryzacola Vasing.; experiment: Test Example 1: herbicidal activity, application before weed generation in submerged conditions (symbol A); details: application herbicide amount 320 g/ha
Method in brief: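 Scores run 0 to 5 by herbicidal ratio, with 5 meaning 90% or more and 0 meaning 5% or lower, read 3 weeks after treatment. Compound was applied as a diluted emulsion to the water surface of submerged alluvial-soil pots on the day weed seeds were sown.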

Abutilon theophrasti = experiment: Test Example 5: herbicidal effect by foliage application, plastic box (symbol M); details: 320 g/ha, 3 weeks after application
Method in brief: as §3

Leptochloa chinensis = experiment: Test Example 3: herbicidal effect by foliage application, Wagner pot (symbol D); details: application herbicide amount 320 g/ha
Method in brief: as §2

Alopecurus myosuroides = experiment: Test Example 4: herbicidal effect by soil treatment (symbol J)
Method in brief: as §1

Digitaria ciliaris [4] = experiment: Test Example 4: herbicidal effect by soil treatment (symbol F)
Method in brief: as §1

rapeseed = experiment: Test Example 4: effect on crop by soil treatment (symbol g); details: for g: rapeseed, effect grade on crop: 320 g/ha; for g: rapeseed, effect on crop grade: application herbicide amount 320 g/ha
Method in brief: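 Steps: fill box with sterilized diluvial soil; sow seed spot-like; cover with ~1.5 cm soil; grow in greenhouse (25° C. to 30° C.).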

Stellaria media = experiment: Test Example 5: herbicidal effect by foliage application, plastic box (symbol P); details: 320 g/ha, 3 weeks after application
Method in brief: as §3

Amaranthus retroflexus = experiment: Test Example 4: herbicidal effect by soil treatment (symbol N)
Method in brief: as §1

Setaria viridis [5] = experiment: Test Example 4: herbicidal effect by soil treatment (symbol G)
Method in brief: as §1

Avena fatua = experiment: Test Example 4: herbicidal effect by soil treatment (symbol I)
Method in brief: as §1

Lolium multiflorum Lam. = experiment: Test Example 5: herbicidal effect by foliage application, plastic box (symbol K); details: 320 g/ha, 3 weeks after application
Method in brief: as §3

rice plant = experiment: Test Example 5: effect on crop by foliage application, plastic box (symbol b); details: 320 g/ha, 3 weeks after application
Method in brief: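 Box culture: sterile diluvial soil, seeds spot-sown, ~1.5 cm cover, raised under glass at 25–30° C.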

Setaria viridis [6] = experiment: Test Example 5: herbicidal effect by foliage application, plastic box (symbol G); details: 320 g/ha, 3 weeks after application
Method in brief: as §3

Apera spica-venti = experiment: Test Example 5: herbicidal effect by foliage application, plastic box (symbol L); details: 320 g/ha, 3 weeks after application
Method in brief: as §3

Chenopodium album = experiment: Test Example 5: herbicidal effect by foliage application, plastic box (symbol O); details: 320 g/ha, 3 weeks after application
Method in brief: as §3

[7] = application herbicide amount 320 g/ha

Compound | R: Veronica persica, herbicidal effect grade (Veronica persica; 320 g/ha) | herbicidal effect on H (Echinochloa crus-galli var. crus-galli), grade 0-5 [1] | Herbicidal effect grade, A: Echinochloa oryzacola Vasing. [3] | herbicidal effect on D (Leptochloa chinensis), grade 0-5 (Leptochloa chinensis) | J: Alopecurus myosuroides, herbicidal effect grade (Alopecurus myosuroides; 320 g/ha) | F: Digitaria ciliaris, herbicidal effect grade (Digitaria ciliaris [4]; 320 g/ha) | g: rapeseed, effect grade on crop (rapeseed) | N: Amaranthus retroflexus, herbicidal effect grade (Amaranthus retroflexus; 320 g/ha) | G: Setaria viridis, herbicidal effect grade (Setaria viridis [5]; 320 g/ha) | I: Avena fatua, herbicidal effect grade (Avena fatua; 320 g/ha) | F: Digitaria ciliaris, herbicidal effect grade (Digitaria ciliaris [2]) | Q: Galium spurium, herbicidal effect grade (Galium spurium) | M: Abutilon theophrasti, herbicidal effect grade (Abutilon theophrasti) | P: Stellaria media, herbicidal effect grade (Stellaria media) | K: Lolium multiflorum Lam., herbicidal effect grade (Lolium multiflorum Lam.) | b: directly sowed rice plant, effect on crop grade (rice plant) | G: Setaria viridis, herbicidal effect grade (Setaria viridis [6]) | L: Apera spica-venti, herbicidal effect grade (Apera spica-venti) | O: Chenopodium album, herbicidal effect grade (Chenopodium album) | R: Veronica persica, herbicidal effect grade (Veronica persica; [7]) | other results
COCCOC(=O)OC1=C(c2c(C)cc(C)cc2C)C(=O)C(CC(C)=NOC)C1 (stereo not drawn) [1-147] | 3 (Herbicidal ratio of 40% or higher and lower than 70%) | 5 (Herbicidal ratio of 90% or more (almost completely withered)) | 5 (Herbicidal ratio of 90% or more (almost completely withered)) | 5 (Herbicidal ratio of 90% or more (almost completely withered)) | 5 (Herbicidal ratio of 90% or more (almost completely withered)) | 5 (Herbicidal ratio of 90% or more (almost completely withered)) | 4 (Herbicidal ratio of 70% or higher and lower than 90%) | 5 (Herbicidal ratio of 90% or more (almost completely withered)) | 5 (Herbicidal ratio of 90% or more (almost completely withered)) | 5 (Herbicidal ratio of 90% or more (almost completely withered)) |  |  |  |  |  |  |  |  |  |  | F: Digitaria ciliaris, herbicidal effect (criteria 0-5) (Digitaria ciliaris [2]): 5 (Herbicidal ratio of 90% or more (almost completely withered)); Q: Galium spurium, herbicidal effect (criteria 0-5) (Galium spurium): 4 (Herbicidal ratio of 70% or higher and lower than 90%); M: Abutilon theophrasti, herbicidal effect (criteria 0-5) (Abutilon theophrasti): 4 (Herbicidal ratio of 70% or higher and lower than 90%); P: Stellaria media, herbicidal effect (criteria 0-5) (Stellaria media): 3 (Herbicidal ratio of 40% or higher and lower than 70%); K: Lolium multiflorum Lam., herbicidal effect (criteria 0-5) (Lolium multiflorum Lam.): 5 (Herbicidal ratio of 90% or more (almost completely withered)); b: directly sowed rice plant, effect on crop (criteria 0-5) (rice plant): 5 (Herbicidal ratio of 90% or more (almost completely withered)); G: Setaria viridis, herbicidal effect (criteria 0-5) (Setaria viridis [6]): 5 (Herbicidal ratio of 90% or more (almost completely withered)); L: Apera spica-venti, herbicidal effect (criteria 0-5) (Apera spica-venti): 5 (Herbicidal ratio of 90% or more (almost completely withered)); O: Chenopodium album, herbicidal effect (criteria 0-5) (Chenopodium album): 1 (Herbicidal ratio of 5% or higher and lower than 20%)
CON=C(C)CC1CC(OC(=O)c2c(Cl)nn(C)c2Cl)=C(c2c(C)cc(C)cc2C)C1=O (stereo not drawn) [1-160] | 0 (Herbicidal ratio of 5% or lower (almost no effect)) | 5 (Herbicidal ratio of 90% or more (almost completely withered)) | 5 (Herbicidal ratio of 90% or more (almost completely withered)) | 5 (Herbicidal ratio of 90% or more (almost completely withered)) | 5 (Herbicidal ratio of 90% or more (almost completely withered)) | 5 (Herbicidal ratio of 90% or more (almost completely withered)) | 4 (Herbicidal ratio of 70% or higher and lower than 90%) | 4 (Herbicidal ratio of 70% or higher and lower than 90%) | 5 (Herbicidal ratio of 90% or more (almost completely withered)) | 0 (Herbicidal ratio of 5% or lower (almost no effect)) | 5 (Herbicidal ratio of 90% or more (almost completely withered)) | 4 (Herbicidal ratio of 70% or higher and lower than 90%) | 4 (Herbicidal ratio of 70% or higher and lower than 90%) | 3 (Herbicidal ratio of 40% or higher and lower than 70%) | 5 (Herbicidal ratio of 90% or more (almost completely withered)) | 5 (Herbicidal ratio of 90% or more (almost completely withered)) | 5 (Herbicidal ratio of 90% or more (almost completely withered)) | 5 (Herbicidal ratio of 90% or more (almost completely withered)) | 2 (Herbicidal ratio of 20% or higher and lower than 40%) |  | 
C=CC(=O)CC1CC(O)=C(c2c(C)cc(C)cc2C)C1=O (stereo not drawn) [2-031] |  | 5 (Herbicidal ratio of 90% or more (almost completely withered)) | 4 (Herbicidal ratio of 70% or higher and lower than 90%) | 5 (Herbicidal ratio of 90% or more (almost completely withered)) |  |  |  |  |  |  | 5 (Herbicidal ratio of 90% or more (almost completely withered)) | 0 (Herbicidal ratio of 5% or lower (almost no effect)) | 0 (Herbicidal ratio of 5% or lower (almost no effect)) | 0 (Herbicidal ratio of 5% or lower (almost no effect)) | 5 (Herbicidal ratio of 90% or more (almost completely withered)) | 5 (Herbicidal ratio of 90% or more (almost completely withered)) | 5 (Herbicidal ratio of 90% or more (almost completely withered)) | 4 (Herbicidal ratio of 70% or higher and lower than 90%) | 0 (Herbicidal ratio of 5% or lower (almost no effect)) | 0 (Herbicidal ratio of 5% or lower (almost no effect)) | J: Alopecurus myosuroides, herbicidal effect grade (Alopecurus myosuroides; [7]): 3 (Herbicidal ratio of 40% or higher and lower than 70%); F: Digitaria ciliaris, herbicidal effect grade (Digitaria ciliaris [4]; [7]): 5 (Herbicidal ratio of 90% or more (almost completely withered)); g: rapeseed, effect on crop grade (rapeseed): 3 (Herbicidal ratio of 40% or higher and lower than 70%); N: Amaranthus retroflexus, herbicidal effect grade (Amaranthus retroflexus; [7]): 0 (Herbicidal ratio of 5% or lower (almost no effect)); G: Setaria viridis, herbicidal effect grade (Setaria viridis [5]; [7]): 5 (Herbicidal ratio of 90% or more (almost completely withered)); I: Avena fatua, herbicidal effect grade (Avena fatua; [7]): 0 (Herbicidal ratio of 5% or lower (almost no effect))
CCC(=O)CC1CC(O)=C(c2c(C)cc(C)cc2C)C1=O (stereo not drawn) [2-006] |  | 5 (Herbicidal ratio of 90% or more (almost completely withered)) | 5 (Herbicidal ratio of 90% or more (almost completely withered)) |  |  |  |  |  |  |  | 3 (Herbicidal ratio of 40% or higher and lower than 70%) | 0 (Herbicidal ratio of 5% or lower (almost no effect)) | 0 (Herbicidal ratio of 5% or lower (almost no effect)) | 0 (Herbicidal ratio of 5% or lower (almost no effect)) | 5 (Herbicidal ratio of 90% or more (almost completely withered)) | 4 (Herbicidal ratio of 70% or higher and lower than 90%) | 3 (Herbicidal ratio of 40% or higher and lower than 70%) | 3 (Herbicidal ratio of 40% or higher and lower than 70%) | 0 (Herbicidal ratio of 5% or lower (almost no effect)) | 0 (Herbicidal ratio of 5% or lower (almost no effect)) | J: Alopecurus myosuroides, herbicidal effect grade (Alopecurus myosuroides; [7]): 5 (Herbicidal ratio of 90% or more (almost completely withered)); F: Digitaria ciliaris, herbicidal effect grade (Digitaria ciliaris [4]; [7]): 5 (Herbicidal ratio of 90% or more (almost completely withered)); g: rapeseed, effect on crop grade (rapeseed): 4 (Herbicidal ratio of 70% or higher and lower than 90%); N: Amaranthus retroflexus, herbicidal effect grade (Amaranthus retroflexus; [7]): 0 (Herbicidal ratio of 5% or lower (almost no effect)); G: Setaria viridis, herbicidal effect grade (Setaria viridis [5]; [7]): 5 (Herbicidal ratio of 90% or more (almost completely withered)); I: Avena fatua, herbicidal effect grade (Avena fatua; [7]): 3 (Herbicidal ratio of 40% or higher and lower than 70%)
